From PubChem BioAssay (NCI)
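All cell lines were grown in 96-well plates and treated with compound for 48 hours. At the TGI there is no net growth.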

What was measured:
NCI/ADR-RES ovarian = assay: DTP human tumour cell line panel, 48 h
SN12K1 renal = assay: DTP human tumour cell line panel, 48 h

Cc1c2cc[nH]c(C(F)(F)F)c2cc2c1nc1ccccc12
TGI (NCI/ADR-RES ovarian): > 125 µM
TGI (SN12K1 renal): > 125 µM
